Data taken from ChEMBL document CHEMBL1201862, “PubChem BioAssay data set” (2004).
Calls of active or inactive are those of the source.

Key:
[1] = target: Protein Rev (Human immunodeficiency virus type 1 group M subtype B (isolate WMJ22)(HIV-1), UniProt P05866); experiment: HIV-1 Rev-RRE RNA binding disruptors, dose response, biochemical, protein-RNA interaction (AID 842); set-up: species or system Human immunodeficiency virus 1
[2] = ARNT/TACC3 interaction disruptors, potency, confirmation, biochemical, AlphaScreen, cherry-picked samples (AID 651703); assay type: functional, Homo sapiens;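 note: His-tagged ARNT PAS-B domain paired with GST-TACC3 E629A dimer coactivator fragment; potency of inhibitors that break up the complex and lower AlphaScreen signal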
[3] = target: Neurotensin receptor type 1 (Homo sapiens, UniProt P30989); assay type: functional;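 note: Image-based confirmatory dose-response assay measuring agonist activity at NTR1; NTR1-expressing U2OS osteosarcoma cells imaged for beta-arrestin GFP spot formation; agonist potency where compounds increase beta-arrestin recruitment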
Chain of Neurotensin receptor type 1 (P30989 whole entry): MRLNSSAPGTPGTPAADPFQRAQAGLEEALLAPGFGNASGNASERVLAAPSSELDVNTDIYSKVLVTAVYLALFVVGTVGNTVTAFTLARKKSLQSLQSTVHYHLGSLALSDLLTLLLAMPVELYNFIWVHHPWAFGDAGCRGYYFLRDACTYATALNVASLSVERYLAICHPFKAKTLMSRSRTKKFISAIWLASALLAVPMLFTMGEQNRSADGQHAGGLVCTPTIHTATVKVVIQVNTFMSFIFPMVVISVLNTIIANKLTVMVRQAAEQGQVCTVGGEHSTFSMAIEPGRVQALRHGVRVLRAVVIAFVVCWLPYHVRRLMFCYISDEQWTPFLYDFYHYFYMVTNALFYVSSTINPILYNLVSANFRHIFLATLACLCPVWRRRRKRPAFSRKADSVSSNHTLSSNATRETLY

[4] = insulin promoter down-regulators in MIN6 cells, imaging, high-content screening, mouse beta cells (AID 1628); assay type: functional
[5] = cytotoxicity toward NIH3T3 fibroblasts, dose response, counter-screen, cell-based, ATP luminescence, mouse fibroblasts (AID 2010); assay type: functional;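 note: cells exposed to compound for about 90 hours before reading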
[6] = target: C-C chemokine receptor type 6 (Homo sapiens, UniProt P51684); experiment: CCR6 receptor antagonists, dose response, cell-based, luminescent beta-arrestin readout (AID 504728); assay type: functional
Chain of C-C chemokine receptor type 6 (P51684 whole entry): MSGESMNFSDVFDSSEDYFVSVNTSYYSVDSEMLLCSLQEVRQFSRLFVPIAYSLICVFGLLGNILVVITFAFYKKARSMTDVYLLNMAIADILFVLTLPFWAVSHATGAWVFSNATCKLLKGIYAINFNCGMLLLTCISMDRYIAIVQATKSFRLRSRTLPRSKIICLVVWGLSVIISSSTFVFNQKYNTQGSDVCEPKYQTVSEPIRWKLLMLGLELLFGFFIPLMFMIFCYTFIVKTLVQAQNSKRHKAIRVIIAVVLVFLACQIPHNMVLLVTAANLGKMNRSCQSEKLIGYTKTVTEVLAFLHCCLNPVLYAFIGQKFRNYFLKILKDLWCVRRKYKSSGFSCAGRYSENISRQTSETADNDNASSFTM

[7] = target: Paired box protein Pax-8 (Homo sapiens, UniProt Q06710); experiment: inhibitors of PAX8-driven TPO luciferase reporter, dose response, RMG-I cells, cherry-pick (AID 687027); assay type: functional, cell-based;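 note: luciferase reporter driven by Pax8 target thyroperoxidase promoter measured by SteadyGlo luminescence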
Chain of Paired box protein Pax-8 (Q06710 whole entry): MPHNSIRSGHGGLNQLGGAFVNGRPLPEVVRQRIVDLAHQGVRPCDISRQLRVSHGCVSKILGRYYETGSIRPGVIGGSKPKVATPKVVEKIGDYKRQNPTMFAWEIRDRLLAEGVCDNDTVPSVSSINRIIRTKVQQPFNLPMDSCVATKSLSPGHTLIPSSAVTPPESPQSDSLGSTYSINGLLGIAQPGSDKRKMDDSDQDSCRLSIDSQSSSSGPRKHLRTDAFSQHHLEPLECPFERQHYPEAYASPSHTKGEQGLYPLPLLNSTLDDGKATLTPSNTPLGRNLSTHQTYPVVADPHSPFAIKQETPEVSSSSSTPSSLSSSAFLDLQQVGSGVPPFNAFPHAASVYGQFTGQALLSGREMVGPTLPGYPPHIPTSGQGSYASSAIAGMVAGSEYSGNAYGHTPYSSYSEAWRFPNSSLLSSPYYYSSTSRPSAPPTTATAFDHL

[8] = cytotoxicity in MIN6 insulinoma cells, dose response, cytotoxicity control, cell-based, mouse insulinoma (AID 2122); assay type: functional;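 note: confirmatory high-throughput counterscreen run to flag cytotoxic compounds; mouse MIN-6 beta cells carrying an insulin promoter eGFP reporter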
[9] = NIH-3T3 fibroblast cytotoxicity, dose response, cytotoxicity control, cell-based, fluorescence, Alamar Blue, secondary assay (AID 2327); assay type: functional;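 note: NIH-3T3 mouse fibroblasts cultured with fluconazole at 8 µg/mL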
[10] = non-specific cell cytotoxicity, dose response, cytotoxicity control for PAX8 inhibitor project, plate reader, dry powder samples (AID 743021); assay type: functional, cell-based
[11] = C. albicans growth with fluconazole, confirmation, fluorescence, retest (AID 2467); assay type: functional, cell-based
[12] = target: Beta-galactosidase (Escherichia coli, UniProt Q8VNN2); experiment: beta-galactosidase enzyme inhibitors and activators, dose response, artefact control for CCR6 antagonist project, biochemical, E. coli enzyme, set 3 (AID 504712); assay type: functional
[13] = tested on: Streptococcus; experiment: Group A Streptococcus viability loss, dose response, counter-screen for streptokinase expression inhibitor project, luminescence, BacTiterGlo (AID 1915); assay type: functional, organism-based;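 note: potency for reduction of bacterial viability or growth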
[14] = inhibitors of intracellular T. cruzi replication, confirmation, NIH3T3 host cells, beta-gal luminescence (AID 2044); assay type: functional, cell-based;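 note: intracellular parasites grown in NIH/3T3 mouse fibroblasts as host cells; luminescent beta-galactosidase reporter signal from transgenic T. cruzi replicating inside host cells; inhibitors lower the luminescence signal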
[15] = tested on: Streptococcus sp. 'group A'; experiment: growth inhibition of control SK(-) GAS strain, dose response, counter-screen for streptokinase expression inhibitor project, luminescence, kanamycin, BacTiterGlo, confirmation (AID 1900); assay type: functional, organism-based
[16] = target: T1, Mannose-6-phosphate isomerase (Homo sapiens, UniProt P34949); experiment: inhibitors of human PMI, primary screen, biochemical, fluorescence intensity, coupled assay (AID 1209)
T1 sequence (P34949 whole entry): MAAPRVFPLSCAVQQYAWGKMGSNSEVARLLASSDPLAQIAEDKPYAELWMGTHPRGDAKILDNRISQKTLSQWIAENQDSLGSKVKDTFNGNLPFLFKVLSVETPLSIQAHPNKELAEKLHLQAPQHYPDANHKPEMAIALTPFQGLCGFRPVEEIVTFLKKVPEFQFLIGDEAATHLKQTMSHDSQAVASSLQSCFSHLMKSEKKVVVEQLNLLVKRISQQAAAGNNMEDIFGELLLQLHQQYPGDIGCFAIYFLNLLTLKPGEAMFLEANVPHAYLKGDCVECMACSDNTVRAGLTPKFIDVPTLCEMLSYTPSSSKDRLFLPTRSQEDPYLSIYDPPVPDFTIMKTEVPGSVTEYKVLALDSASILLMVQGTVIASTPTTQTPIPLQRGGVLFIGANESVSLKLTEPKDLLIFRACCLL

[17] = target: Aspartyl aminopeptidase (Plasmodium falciparum 3D7, UniProt Q8I2J3)
[18] = target: Procathepsin L (Homo sapiens, UniProt P07711)
[19] = target: Glucose-6-phosphate 1-dehydrogenase (Homo sapiens, UniProt P11413); experiment: human G6PD enzyme inhibitors, dose response, selectivity assay for P. falciparum G6PD inhibitor project, biochemical, fluorescence (AID 504792); assay type: functional
Chain of Glucose-6-phosphate 1-dehydrogenase (P11413 whole entry): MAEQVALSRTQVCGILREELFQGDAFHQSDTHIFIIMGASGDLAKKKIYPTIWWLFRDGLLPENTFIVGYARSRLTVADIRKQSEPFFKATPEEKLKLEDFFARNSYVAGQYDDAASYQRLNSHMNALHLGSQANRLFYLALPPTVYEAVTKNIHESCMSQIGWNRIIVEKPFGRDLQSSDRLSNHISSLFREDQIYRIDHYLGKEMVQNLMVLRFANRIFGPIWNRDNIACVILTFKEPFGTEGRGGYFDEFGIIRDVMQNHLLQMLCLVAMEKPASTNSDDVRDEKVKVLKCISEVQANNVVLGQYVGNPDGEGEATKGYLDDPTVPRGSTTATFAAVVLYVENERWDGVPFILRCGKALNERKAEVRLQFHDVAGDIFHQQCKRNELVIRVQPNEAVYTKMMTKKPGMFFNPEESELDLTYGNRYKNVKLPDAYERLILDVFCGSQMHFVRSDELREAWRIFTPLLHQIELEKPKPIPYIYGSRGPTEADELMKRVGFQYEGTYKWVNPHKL

[20] = tested on: Staphylococcus aureus; experiment: Inhibitors of Bacterial Quorum Sensing Structure Activity Relationship (SAR) Analysis: Dose Response Assay. [Related pubchem assays: 700, 527 ]; assay type: functional, organism-based
[21] = target: T2, Polyadenylate-binding protein 1 (Homo sapiens, UniProt P11940); experiment: PABP1 MLLE–PAM2 interaction inhibitors, dose response, miRNA deadenylation inhibitor project, biochemical, fluorescence polarization, Cy5-PAM2 peptide, secondary (AID 602260); assay type: functional; details: read-out: IC50_Mean
T2 sequence (P11940 whole entry): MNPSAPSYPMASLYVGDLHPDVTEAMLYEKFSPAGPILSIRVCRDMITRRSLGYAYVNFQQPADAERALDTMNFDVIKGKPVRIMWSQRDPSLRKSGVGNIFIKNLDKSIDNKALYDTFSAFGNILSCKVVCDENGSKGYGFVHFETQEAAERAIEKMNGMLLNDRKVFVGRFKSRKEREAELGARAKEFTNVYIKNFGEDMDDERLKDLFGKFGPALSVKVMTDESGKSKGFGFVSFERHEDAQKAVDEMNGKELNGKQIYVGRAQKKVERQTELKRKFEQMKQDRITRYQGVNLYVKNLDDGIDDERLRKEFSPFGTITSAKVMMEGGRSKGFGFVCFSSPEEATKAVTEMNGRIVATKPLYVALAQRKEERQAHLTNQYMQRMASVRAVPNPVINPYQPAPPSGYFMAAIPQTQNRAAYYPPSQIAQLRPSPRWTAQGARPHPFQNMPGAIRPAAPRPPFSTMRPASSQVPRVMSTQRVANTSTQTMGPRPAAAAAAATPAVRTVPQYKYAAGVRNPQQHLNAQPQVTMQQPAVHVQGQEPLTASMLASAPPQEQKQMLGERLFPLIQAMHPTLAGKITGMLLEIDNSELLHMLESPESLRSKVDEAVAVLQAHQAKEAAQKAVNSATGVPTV

[22] = THP-1 cell cytotoxicity, dose response, cytotoxicity control for Vif-APOBEC3G degradation inhibitor project, THP-1 cells (AID 1117359); assay type: functional; details: Human immunodeficiency virus 1, THP-1
[23] = target: T2, Polyadenylate-binding protein 1; experiment: PABP1 MLLE–PAM2 binding inhibitor potency, dose response, biochemical, fluorescence polarization, FITC-PAM2 peptide (AID 602259); assay type: functional; details: read-out: IC50_Mean
[24] = tested on: HeLa; experiment: HeLa cell cytotoxicity, dose response, cytotoxicity control, 24 h, cherry-picked samples (AID 504726); assay type: functional, cell-based; details: Homo sapiens;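 note: potency for cytotoxicity as loss of luminescence signal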
[25] = target: Mothers against decapentaplegic homolog 3 (Homo sapiens, UniProt P84022); experiment: Smad3 binding inhibitors, lysate ELISA, dose response, cell lysate, secondary confirmation, chemiluminescent ELISA, HEK293 lysate (AID 1058); assay type: functional
Chain of Mothers against decapentaplegic homolog 3 (P84022 whole entry): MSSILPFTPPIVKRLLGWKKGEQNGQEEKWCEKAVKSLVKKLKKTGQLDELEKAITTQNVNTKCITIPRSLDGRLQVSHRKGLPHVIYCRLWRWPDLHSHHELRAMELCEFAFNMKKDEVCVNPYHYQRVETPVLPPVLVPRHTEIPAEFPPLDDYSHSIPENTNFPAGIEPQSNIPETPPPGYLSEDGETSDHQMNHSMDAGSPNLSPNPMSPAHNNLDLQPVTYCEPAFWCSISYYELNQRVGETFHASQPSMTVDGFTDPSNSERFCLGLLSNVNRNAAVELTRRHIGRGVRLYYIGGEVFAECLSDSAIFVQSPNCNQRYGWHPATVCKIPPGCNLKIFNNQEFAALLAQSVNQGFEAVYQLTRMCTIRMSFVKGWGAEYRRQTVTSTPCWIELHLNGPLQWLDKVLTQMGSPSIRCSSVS

[26] = target: Acyl-homoserine lactone acylase PvdQ (Pseudomonas aeruginosa (strain LESB58), UniProt Q9I194); experiment: P. aeruginosa PvdQ acylase inhibitors, dose response, biochemical, fluorescence, plate reader and imaging, cherry-picks (AID 493231)
Chain of Acyl-homoserine lactone acylase PvdQ (Q9I194 24-193 limits assumed): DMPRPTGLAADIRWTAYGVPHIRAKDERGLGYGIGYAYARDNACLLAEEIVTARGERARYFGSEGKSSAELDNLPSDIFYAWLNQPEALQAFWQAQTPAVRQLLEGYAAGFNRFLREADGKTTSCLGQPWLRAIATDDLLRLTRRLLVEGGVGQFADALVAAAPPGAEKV
Chain of Acyl-homoserine lactone acylase PvdQ (Q9I194 217-762 limits assumed): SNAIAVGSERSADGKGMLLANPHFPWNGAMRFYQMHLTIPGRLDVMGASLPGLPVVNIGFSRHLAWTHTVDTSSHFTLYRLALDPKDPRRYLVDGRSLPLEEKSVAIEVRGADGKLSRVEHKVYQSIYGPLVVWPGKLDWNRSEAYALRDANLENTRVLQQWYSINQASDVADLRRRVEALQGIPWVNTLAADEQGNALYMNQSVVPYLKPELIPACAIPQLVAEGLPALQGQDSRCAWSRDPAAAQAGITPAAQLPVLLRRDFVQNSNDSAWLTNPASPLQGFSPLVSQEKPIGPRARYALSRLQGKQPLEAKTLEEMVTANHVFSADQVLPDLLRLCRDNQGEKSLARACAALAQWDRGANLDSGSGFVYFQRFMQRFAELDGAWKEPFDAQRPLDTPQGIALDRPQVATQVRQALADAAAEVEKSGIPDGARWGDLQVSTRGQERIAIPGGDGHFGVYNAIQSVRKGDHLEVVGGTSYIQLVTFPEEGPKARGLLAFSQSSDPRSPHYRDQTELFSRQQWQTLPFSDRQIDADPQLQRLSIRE

[27] = target: Potassium voltage-gated channel subfamily KQT member 2 (Rattus norvegicus, UniProt O88943); experiment: retigabine-insensitive KCNQ2 potentiators, concentration-response, dose response, cell-based, retigabine-insensitive compounds (AID 2654); assay type: functional
Chain of Potassium voltage-gated channel subfamily KQT member 2 (O88943 whole entry): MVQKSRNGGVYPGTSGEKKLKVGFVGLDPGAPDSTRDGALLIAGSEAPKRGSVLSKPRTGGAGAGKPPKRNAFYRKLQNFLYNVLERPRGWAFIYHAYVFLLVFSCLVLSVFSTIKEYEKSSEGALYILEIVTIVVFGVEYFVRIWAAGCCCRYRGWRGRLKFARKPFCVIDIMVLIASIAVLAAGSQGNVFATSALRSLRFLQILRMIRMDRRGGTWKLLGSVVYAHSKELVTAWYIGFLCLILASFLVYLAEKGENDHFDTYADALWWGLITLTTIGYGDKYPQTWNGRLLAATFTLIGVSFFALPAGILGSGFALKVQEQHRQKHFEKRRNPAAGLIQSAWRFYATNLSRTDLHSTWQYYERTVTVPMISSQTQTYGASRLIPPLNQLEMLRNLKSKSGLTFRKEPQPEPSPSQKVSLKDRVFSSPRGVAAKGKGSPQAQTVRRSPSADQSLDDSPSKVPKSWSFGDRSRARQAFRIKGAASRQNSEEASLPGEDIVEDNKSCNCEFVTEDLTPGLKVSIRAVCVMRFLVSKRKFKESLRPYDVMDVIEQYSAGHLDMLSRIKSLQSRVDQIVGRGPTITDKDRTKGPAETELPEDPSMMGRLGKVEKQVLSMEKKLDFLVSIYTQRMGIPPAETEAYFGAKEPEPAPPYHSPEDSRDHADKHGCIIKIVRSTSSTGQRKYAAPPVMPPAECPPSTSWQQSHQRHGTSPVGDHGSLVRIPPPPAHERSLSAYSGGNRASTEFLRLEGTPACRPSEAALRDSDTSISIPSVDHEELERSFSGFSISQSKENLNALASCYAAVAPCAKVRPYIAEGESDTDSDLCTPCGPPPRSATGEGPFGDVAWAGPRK

[28] = target: T3, Intestinal-type alkaline phosphatase (Homo sapiens, UniProt P09923); experiment: Dose Response confirmation of uHTS hits from a small molecule inhibitors of human intestinal alkaline phosphatase via a luminescent assay. [Related pubchem assays (depositor defined):AID2544, AID2574]; assay type: functional
T3 sequence (P09923 whole entry): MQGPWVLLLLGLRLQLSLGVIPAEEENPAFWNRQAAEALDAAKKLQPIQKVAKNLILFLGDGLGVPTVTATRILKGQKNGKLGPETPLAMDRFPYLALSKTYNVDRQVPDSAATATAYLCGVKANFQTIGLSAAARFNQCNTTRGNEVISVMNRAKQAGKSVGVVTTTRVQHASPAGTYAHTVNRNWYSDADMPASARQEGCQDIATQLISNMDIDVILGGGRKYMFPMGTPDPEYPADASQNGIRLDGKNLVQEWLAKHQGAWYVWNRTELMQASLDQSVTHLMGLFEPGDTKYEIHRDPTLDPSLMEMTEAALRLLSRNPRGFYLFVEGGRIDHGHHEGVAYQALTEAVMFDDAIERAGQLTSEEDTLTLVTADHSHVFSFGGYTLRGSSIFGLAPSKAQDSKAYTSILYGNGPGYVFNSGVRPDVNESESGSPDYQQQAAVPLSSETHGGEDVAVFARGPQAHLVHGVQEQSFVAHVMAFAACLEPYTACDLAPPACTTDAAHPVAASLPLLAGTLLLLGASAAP

[29] = target: T3, Intestinal-type alkaline phosphatase; experiment: human intestinal alkaline phosphatase activators, dose response, biochemical, luminescence, uHTS hits (AID 463120); assay type: functional

COc1ccc(Nc2nc(N)nc(CN(C)C3CCCCC3)n2)cc1
IC50 [1]: > 79.4 µM (not active)
AC50 [2]: 90.7 µM (active)

O=C1NC(=O)N(Cc2ccc(F)cc2)C(=O)/C1=C/c1cccs1
EC50 [3]: 12.6 µM (active)

COc1cccc(/C=N/Nc2nc(Nc3ccc([N+](=O)[O-])cc3)nc(N3CCCC3)n2)c1O
IC50 [4]: 2.8 µM (active)
EC50 [5]: 8.48 µM (active)
IC50 [6]: 1.64 µM (active)
AC50 [7]: 5.65 µM (active)
IC50 [8]: 2.71 µM (active)
EC50 [9]: 4.69 µM (active)
AC50 [10]: 20.9 µM (active)
EC50 [11]: > 38 µM (not active)
IC50 [12]: > 66.6 µM (inactive)
EC50 [13]: 12.1 µM (active)
EC50 [14]: 0.866 µM (active)
EC50 [15]: 3.77 µM (active)

CC1(C)CC2(CC(c3ccccc3F)c3ccc(O)c(O)c3O2)NC(=S)N1 (stereo not given)
IC50 [16]: 39.9 µM (active)
IC50 [17]: 1.76 µM (active)
IC50 [18]: > 59.6 µM (not active)
IC50 [19]: > 80 µM (inactive)

O=C(O)c1ccccc1NC(c1ccccc1)c1ccc(Cl)cc1 (stereo not given)
IC50 [20]: 0.448 µM (active)

CN(Cc1cnc2nc(N)nc(N)c2n1)c1ccc(C(=O)NC(CCC(=O)O)C(=O)O)cc1 (stereo not given)
AC50 [2]: 74.5 µM (active)
IC50 [21]: 52.1 µM (inactive)
CC50 [22]: 0.23 µM (active)
IC50 [23]: 41.6 µM (inactive)
AC50 [24]: 0.629 µM (active)

COc1cccc(C(c2cc3c(cc2O)OCO3)N2CCCC2)c1O (stereo not given)
IC50 [25]: < 2.5 µM (not active)

Cc1cccc(NC(=O)Nc2cc(C)on2)c1
AC50 [26]: 7.61 µM (active)

O=C(Nc1ccc(Cl)cc1)Nc1cccnc1
EC50 [27]: 6.85 µM (active)

CC(=O)Nc1ccc(NC(=O)C2CC(=O)N(C(C)C)C2)cc1 (stereo not given)
IC50 [28]: > 100 µM (inactive)
EC50 [29]: > 100 µM (inactive)
